# Test results reported in paper PMC9481151, “Discovery of new symmetrical and asymmetrical nitrile-containing 1,4-dihydropyridine derivatives as dual kinases and P-glycoprotein inhibitors: synthesis, in vitro assays, and in silico studies” (Journal of Enzyme Inhibition and Medicinal Chemistry, 2022).
# Assays:
# HT29 = assay: NCI single dose (10 µM) SRB screen; format: cell-based, human; settings: colon cancer, 48 h
# SN12C = assay: NCI single dose (10 µM) SRB screen; format: cell-based, human; settings: renal cancer, 48 h
# OVCAR-3 = assay: NCI single dose (10 µM) SRB screen; format: cell-based, human; settings: ovarian cancer, 48 h
# SW-620 = assay: NCI single dose (10 µM) SRB screen; format: cell-based, human; settings: colon cancer, 48 h
# IGROV1 = assay: NCI single dose (10 µM) SRB screen; format: cell-based, human; settings: ovarian cancer, 48 h
# NCI 60 cancer cell lines = assay: NCI single dose (10 µM) SRB screen, mean over panel; format: cell-based, human; settings: mean over 60 cell lines, 48 h
# NCI-H460 = assay: NCI single dose (10 µM) SRB screen; format: cell-based, human; settings: non-small cell lung cancer, 48 h
# A549/ATCC = assay: NCI single dose (10 µM) SRB screen; format: cell-based, human; settings: non-small cell lung cancer, 48 h
# MDA-MB-468 = assay: NCI single dose (10 µM) SRB screen; format: cell-based, human; settings: breast cancer, 48 h
# HS578T = assay: NCI single dose (10 µM) SRB screen; format: cell-based, human; settings: breast cancer, 48 h
# RPMI-8226 = assay: NCI single dose (10 µM) SRB screen; format: cell-based, human; settings: leukaemia, 48 h
# HOP-62 = assay: NCI single dose (10 µM) SRB screen; format: cell-based, human; settings: non-small cell lung cancer, 48 h
# K-562 = assay: NCI single dose (10 µM) SRB screen; format: cell-based, human; settings: leukaemia, 48 h
# MCF7 = assay: NCI single dose (10 µM) SRB screen; format: cell-based, human; settings: breast cancer, 48 h
# 786-0 = assay: NCI single dose (10 µM) SRB screen; format: cell-based, human; settings: renal cancer, 48 h
# HL-60(TB) = assay: NCI single dose (10 µM) SRB screen; format: cell-based, human; settings: leukaemia, 48 h
# EKVX = assay: NCI single dose (10 µM) SRB screen; format: cell-based, human; settings: non-small cell lung cancer, 48 h
# SK-MEL-2 = assay: NCI single dose (10 µM) SRB screen; format: cell-based, human; settings: melanoma, 48 h
# RXF 393 = assay: NCI single dose (10 µM) SRB screen; format: cell-based, human; settings: renal cancer, 48 h
# HCT-15 = assay: NCI single dose (10 µM) SRB screen; format: cell-based, human; settings: colon cancer, 48 h
# CCRF-CEM = assay: NCI single dose (10 µM) SRB screen; format: cell-based, human; settings: leukaemia, 48 h
# MOLT-4 = assay: NCI single dose (10 µM) SRB screen; format: cell-based, human; settings: leukaemia, 48 h
# NCI-H522 = assay: NCI single dose (10 µM) SRB screen; format: cell-based, human; settings: non-small cell lung cancer, 48 h
# SF-539 = assay: NCI single dose (10 µM) SRB screen; format: cell-based, human; settings: CNS cancer, 48 h
# A498 = assay: NCI single dose (10 µM) SRB screen; format: cell-based, human; settings: renal cancer, 48 h
# DU-145 = assay: NCI single dose (10 µM) SRB screen; format: cell-based, human; settings: prostate cancer, 48 h
# OVCAR-5 = assay: NCI single dose (10 µM) SRB screen; format: cell-based, human; settings: ovarian cancer, 48 h
# HCT-116 = assay: NCI single dose (10 µM) SRB screen; format: cell-based, human; settings: colon cancer, 48 h
# NCI-H322M = assay: NCI single dose (10 µM) SRB screen; format: cell-based; settings: non-small cell lung cancer, 48 h
# MDA-MB-231 = assay: NCI single dose (10 µM) SRB screen; format: cell-based, human; settings: breast cancer, 48 h
# NCI-H226 = assay: NCI single dose (10 µM) SRB screen; format: cell-based, human; settings: non-small cell lung cancer, 48 h
# SNB-75 = assay: NCI single dose (10 µM) SRB screen; format: cell-based, human; settings: CNS cancer, 48 h
# UO-31 = assay: NCI single dose (10 µM) SRB screen; format: cell-based, human; settings: renal cancer, 48 h
# SK-OV-3 = assay: NCI single dose (10 µM) SRB screen; format: cell-based, human; settings: ovarian cancer, 48 h
# SF-295 = assay: NCI single dose (10 µM) SRB screen; format: cell-based, human; settings: CNS cancer, 48 h
# SK-MEL-28 = assay: NCI single dose (10 µM) SRB screen; format: cell-based, human; settings: melanoma, 48 h
# Escherichia coli = assay: Agar well diffusion method; settings: relative to ciprofloxacin
# LOX IMVI = assay: NCI single dose (10 µM) SRB screen; format: cell-based, human; settings: melanoma, 48 h
# Pseudomonas aeruginosa = assay: Agar well diffusion method; settings: relative to ciprofloxacin
# PC-3 = assay: NCI single dose (10 µM) SRB screen; format: cell-based, human; settings: prostate cancer, 48 h
# TK-10 = assay: NCI single dose (10 µM) SRB screen; format: cell-based, human; settings: renal cancer, 48 h
# U251 = assay: NCI single dose (10 µM) SRB screen; format: cell-based, human; settings: CNS cancer, 48 h
# NCI-H23 = assay: NCI single dose (10 µM) SRB screen; format: cell-based, human; settings: non-small cell lung cancer, 48 h
# Candida albicans = assay: Agar well diffusion method; settings: relative to clotrimazole
# Aspergillus flavus = assay: Agar well diffusion method
# CAKI-1 = assay: NCI single dose (10 µM) SRB screen; format: cell-based, human; settings: renal cancer, 48 h
# UACC-257 = assay: NCI single dose (10 µM) SRB screen; format: cell-based, human; settings: melanoma, 48 h
# KM12 = assay: NCI single dose (10 µM) SRB screen; format: cell-based, human; settings: colon cancer, 48 h
# HOP-92 = assay: NCI single dose (10 µM) SRB screen; format: cell-based, human; settings: non-small cell lung cancer, 48 h
# M14 = assay: NCI single dose (10 µM) SRB screen; format: cell-based, human; settings: melanoma, 48 h
# OVCAR-8 = assay: NCI single dose (10 µM) SRB screen; format: cell-based, human; settings: ovarian cancer, 48 h
# UACC-62 = assay: NCI single dose (10 µM) SRB screen; format: cell-based, human; settings: melanoma, 48 h
# COLO 205 = assay: NCI single dose (10 µM) SRB screen; format: cell-based, human; settings: colon cancer, 48 h
# ACHN = assay: NCI single dose (10 µM) SRB screen; format: cell-based, human; settings: renal cancer, 48 h
# MALME-3M = assay: NCI single dose (10 µM) SRB screen; format: cell-based, human; settings: melanoma, 48 h
# T-47D = assay: NCI single dose (10 µM) SRB screen; format: cell-based, human; settings: breast cancer, 48 h
# SK-MEL-5 = assay: NCI single dose (10 µM) SRB screen; format: cell-based, human; settings: melanoma, 48 h
# Bacillus subtilis = assay: Agar well diffusion method; settings: relative to ciprofloxacin
# SNB-19 = assay: NCI single dose (10 µM) SRB screen; format: cell-based, human; settings: CNS cancer, 48 h
# OVCAR-4 = assay: NCI single dose (10 µM) SRB screen; format: cell-based, human; settings: ovarian cancer, 48 h
# SR = assay: NCI single dose (10 µM) SRB screen; format: cell-based, human; settings: leukaemia, 48 h
# SF-268 = assay: NCI single dose (10 µM) SRB screen; format: cell-based, human; settings: CNS cancer, 48 h
# NCI/ADR-RES = assay: NCI single dose (10 µM) SRB screen; format: cell-based, human; settings: ovarian cancer, 48 h
# MDA-MB-435 = assay: NCI single dose (10 µM) SRB screen; format: cell-based, human; settings: melanoma, 48 h
# BT-549 = assay: NCI single dose (10 µM) SRB screen; format: cell-based, human; settings: breast cancer, 48 h
# Staphylococcus aureus = assay: Agar well diffusion method
# HCC-2998 = assay: NCI single dose (10 µM) SRB screen; format: cell-based, human; settings: colon cancer, 48 h
substance,measurement,setting,value
"Diethyl 4-(3-cyanophenyl)-2,6-dipropyl-1,4-dihydropyridine-3,5-dicarboxylate [Compound 1h]",GI% HT29,HT29,12%
same,GI% SN12C,SN12C,– (Only GI% ≥ 10 are shown)
same,GI% OVCAR-3,OVCAR-3,– (Only GI% ≥ 10 are shown)
same,GI% SW-620,SW-620,– (Only GI% ≥ 10 are shown)
same,GI% IGROV1,IGROV1,10%
same,Mean GI%,NCI 60 cancer cell lines,14%
same,GI% NCI-H460,NCI-H460,– (Only GI% ≥ 10 are shown)
same,GI% A549/ATCC,A549/ATCC,21%
same,GI% MDA-MB-468,MDA-MB-468,20%
same,GI% HS578T,HS578T,18%
same,GI% RPMI-8226,RPMI-8226,34%
same,GI% HOP-62,HOP-62,– (Only GI% ≥ 10 are shown)
same,GI% K-562,K-562,31%
same,GI% MCF7,MCF7,25%
same,GI% 786-0,786-0,16%
same,GI% HL-60(TB),HL-60(TB),– (Only GI% ≥ 10 are shown)
same,GI% EKVX,EKVX,21%
same,GI% SK-MEL-2,SK-MEL-2,– (Only GI% ≥ 10 are shown)
same,GI% RXF 393,RXF 393,18%
same,GI% HCT-15,HCT-15,17%
same,GI% CCRF-CEM,CCRF-CEM,24%
same,GI% MOLT-4,MOLT-4,38%
same,GI% NCI-H522,NCI-H522,20%
same,GI% SF-539,SF-539,14%
same,GI% A498,A498,18%
same,GI% DU-145,DU-145,– (Only GI% ≥ 10 are shown)
same,GI% OVCAR-5,OVCAR-5,– (Only GI% ≥ 10 are shown)
same,GI% HCT-116,HCT-116,30%
same,GI% NCI-H322M,NCI-H322M,– (Only GI% ≥ 10 are shown)
same,GI% MDA-MB-231,MDA-MB-231,– (Only GI% ≥ 10 are shown)
same,GI% NCI-H226,NCI-H226,26%
same,GI% SNB-75,SNB-75,42%
same,GI% UO-31,UO-31,19%
same,GI% SK-OV-3,SK-OV-3,– (Only GI% ≥ 10 are shown)
same,GI% SF-295,SF-295,11%
same,GI% SK-MEL-28,SK-MEL-28,– (Only GI% ≥ 10 are shown)
same,"% activity index, E. coli",Escherichia coli,– (Values below 25 are of limited value and not shown as they refer either to inactive or non-diffusing compounds)
same,GI% LOX IMVI,LOX IMVI,– (Only GI% ≥ 10 are shown)
same,"% activity index, P. aeruginosa",Pseudomonas aeruginosa,– (Values below 25 are of limited value and not shown as they refer either to inactive or non-diffusing compounds)
same,GI% PC-3,PC-3,47%
same,GI% TK-10,TK-10,– (Only GI% ≥ 10 are shown)
same,GI% U251,U251,– (Only GI% ≥ 10 are shown)
same,GI% NCI-H23,NCI-H23,– (Only GI% ≥ 10 are shown)
same,"% activity index, C. albicans",Candida albicans,– (Values below 25 are of limited value and not shown as they refer either to inactive or non-diffusing compounds)
same,"Diameter of inhibition zone, A. flavus","Aspergillus flavus; 1 mg/mL in DMSO, 24 h, 36 °C",8 mm
same,"% activity index, A. flavus",Aspergillus flavus; relative to clotrimazole,32%
same,GI% CAKI-1,CAKI-1,30%
same,GI% UACC-257,UACC-257,– (Only GI% ≥ 10 are shown)
same,GI% KM12,KM12,– (Only GI% ≥ 10 are shown)
same,GI% HOP-92,HOP-92,29%
same,GI% M14,M14,– (Only GI% ≥ 10 are shown)
same,GI% OVCAR-8,OVCAR-8,– (Only GI% ≥ 10 are shown)
same,GI% UACC-62,UACC-62,19%
same,GI% COLO 205,COLO 205,– (Only GI% ≥ 10 are shown)
same,GI% ACHN,ACHN,– (Only GI% ≥ 10 are shown)
same,GI% MALME-3M,MALME-3M,– (Only GI% ≥ 10 are shown)
same,GI% T-47D,T-47D,32%
same,GI% SK-MEL-5,SK-MEL-5,31%
same,"% activity index, B. subtilis",Bacillus subtilis,– (Values below 25 are of limited value and not shown as they refer either to inactive or non-diffusing compounds)
same,GI% SNB-19,SNB-19,– (Only GI% ≥ 10 are shown)
same,GI% OVCAR-4,OVCAR-4,32%
same,GI% SR,SR,32%
same,GI% SF-268,SF-268,22%
same,GI% NCI/ADR-RES,NCI/ADR-RES,18%
same,GI% MDA-MB-435,MDA-MB-435,– (Only GI% ≥ 10 are shown)
same,GI% BT-549,BT-549,14%
same,"Diameter of inhibition zone, S. aureus","Staphylococcus aureus; 1 mg/mL in DMSO, 24 h, 36 °C",7 mm
same,"% activity index, S. aureus",Staphylococcus aureus; relative to ciprofloxacin,29.2%
same,GI% HCC-2998,HCC-2998,– (Only GI% ≥ 10 are shown)
